smiles,measurement,setting,value
O=C1Cc2cc(F)ccc2N1,solubility (mole fraction),"in DMF, 278.15 K",0.226
same,solubility (mole fraction),"in DMF, 283.15 K",0.239
same,solubility (mole fraction),"in DMF, 288.15 K",0.253
same,solubility (mole fraction),"in DMF, 293.15 K",0.27
same,solubility (mole fraction),"in DMF, 298.15 K",0.289
same,solubility (mole fraction),"in DMF, 303.15 K",0.309
same,solubility (mole fraction),"in DMF, 308.15 K",0.331
same,solubility (mole fraction),"in DMF, 313.15 K",0.357
same,solubility (mole fraction),"in DMF, 318.15 K",0.384
same,solubility (mole fraction),"in DMF, 323.15 K",0.419
same,solubility (mole fraction),"in THF, 278.15 K",0.0838
same,solubility (mole fraction),"in THF, 283.15 K",0.0938
same,solubility (mole fraction),"in THF, 288.15 K",0.104
same,solubility (mole fraction),"in THF, 293.15 K",0.115
same,solubility (mole fraction),"in THF, 298.15 K",0.129
same,solubility (mole fraction),"in THF, 303.15 K",0.144
same,solubility (mole fraction),"in THF, 308.15 K",0.162
same,solubility (mole fraction),"in THF, 313.15 K",0.183
same,solubility (mole fraction),"in THF, 318.15 K",0.209
same,solubility (mole fraction),"in THF, 323.15 K",0.237
same,solubility (mole fraction),"in acetone, 278.15 K",0.0551
same,solubility (mole fraction),"in acetone, 283.15 K",0.0618
same,solubility (mole fraction),"in acetone, 288.15 K",0.0678
same,solubility (mole fraction),"in acetone, 293.15 K",0.0764
same,solubility (mole fraction),"in acetone, 298.15 K",0.085
same,solubility (mole fraction),"in acetone, 303.15 K",0.096
same,solubility (mole fraction),"in acetone, 308.15 K",0.108
same,solubility (mole fraction),"in acetone, 313.15 K",0.123
same,solubility (mole fraction),"in acetone, 318.15 K",0.14
same,solubility (mole fraction),"in acetone, 323.15 K",0.16
same,solubility (mole fraction),"in acetonitrile, 278.15 K",0.02
same,solubility (mole fraction),"in acetonitrile, 283.15 K",0.0227
same,solubility (mole fraction),"in acetonitrile, 288.15 K",0.0261
same,solubility (mole fraction),"in acetonitrile, 293.15 K",0.03
same,solubility (mole fraction),"in acetonitrile, 298.15 K",0.0344
same,solubility (mole fraction),"in acetonitrile, 303.15 K",0.0399
same,solubility (mole fraction),"in acetonitrile, 308.15 K",0.0463
same,solubility (mole fraction),"in acetonitrile, 313.15 K",0.0537
same,solubility (mole fraction),"in acetonitrile, 318.15 K",0.0632
same,solubility (mole fraction),"in acetonitrile, 323.15 K",0.0748
same,solubility (mole fraction),"in ethyl acetate, 278.15 K",0.0149
same,solubility (mole fraction),"in ethyl acetate, 283.15 K",0.0165
same,solubility (mole fraction),"in ethyl acetate, 288.15 K",0.0185
same,solubility (mole fraction),"in ethyl acetate, 293.15 K",0.0206
same,solubility (mole fraction),"in ethyl acetate, 298.15 K",0.0234
same,solubility (mole fraction),"in ethyl acetate, 303.15 K",0.0265
same,solubility (mole fraction),"in ethyl acetate, 308.15 K",0.03
same,solubility (mole fraction),"in ethyl acetate, 313.15 K",0.0343
same,solubility (mole fraction),"in ethyl acetate, 318.15 K",0.0394
same,solubility (mole fraction),"in ethyl acetate, 323.15 K",0.0459
same,solubility (mole fraction),"in isopropanol, 278.15 K",0.0197
same,solubility (mole fraction),"in isopropanol, 283.15 K",0.0225
same,solubility (mole fraction),"in isopropanol, 288.15 K",0.0263
same,solubility (mole fraction),"in isopropanol, 293.15 K",0.0309
same,solubility (mole fraction),"in isopropanol, 298.15 K",0.0367
same,solubility (mole fraction),"in isopropanol, 303.15 K",0.0436
same,solubility (mole fraction),"in isopropanol, 308.15 K",0.0506
same,solubility (mole fraction),"in isopropanol, 313.15 K",0.0601
same,solubility (mole fraction),"in isopropanol, 318.15 K",0.0717
same,solubility (mole fraction),"in isopropanol, 323.15 K",0.0857
same,solubility (mole fraction),"in methanol, 278.15 K",0.0247
same,solubility (mole fraction),"in methanol, 283.15 K",0.0296
same,solubility (mole fraction),"in methanol, 288.15 K",0.0358
same,solubility (mole fraction),"in methanol, 293.15 K",0.0422
same,solubility (mole fraction),"in methanol, 298.15 K",0.0504
same,solubility (mole fraction),"in methanol, 303.15 K",0.0594
same,solubility (mole fraction),"in methanol, 308.15 K",0.0704
same,solubility (mole fraction),"in methanol, 313.15 K",0.0841
same,solubility (mole fraction),"in methanol, 318.15 K",0.0998
same,solubility (mole fraction),"in methanol, 323.15 K",0.12
same,solubility (mole fraction),"in n-hexane, 278.15 K",0.000387
same,solubility (mole fraction),"in n-hexane, 283.15 K",0.000492
same,solubility (mole fraction),"in n-hexane, 288.15 K",0.000623
same,solubility (mole fraction),"in n-hexane, 293.15 K",0.000784
same,solubility (mole fraction),"in n-hexane, 298.15 K",0.000984
same,solubility (mole fraction),"in n-hexane, 303.15 K",0.00125
same,solubility (mole fraction),"in n-hexane, 308.15 K",0.00153
same,solubility (mole fraction),"in n-hexane, 313.15 K",0.00196
same,solubility (mole fraction),"in n-hexane, 318.15 K",0.00247
same,solubility (mole fraction),"in n-hexane, 323.15 K",0.00311
same,solubility (mole fraction),"in n-propanol, 278.15 K",0.0293
same,solubility (mole fraction),"in n-propanol, 283.15 K",0.0336
same,solubility (mole fraction),"in n-propanol, 288.15 K",0.0388
same,solubility (mole fraction),"in n-propanol, 293.15 K",0.0445
same,solubility (mole fraction),"in n-propanol, 298.15 K",0.0513
same,solubility (mole fraction),"in n-propanol, 303.15 K",0.0598
same,solubility (mole fraction),"in n-propanol, 308.15 K",0.0688
same,solubility (mole fraction),"in n-propanol, 313.15 K",0.0798
same,solubility (mole fraction),"in n-propanol, 318.15 K",0.093
same,solubility (mole fraction),"in n-propanol, 323.15 K",0.11

# — BigSolDB 2.1
